Values of other authors as cited in patent publication US7157444B2, “Aminosalicylate derivatives for treatment of inflammatory bowel disease” (priority 2002, dated 2007).

Settings: oral, 40 mL of a suspension of 1 g of ASA in water, fasted healthy subjects

| SMILES | maximum plasma concentration [µg/mL] | time of maximum plasma concentration post-dose |
| --- | --- | --- |
| Nc1ccc(O)c(C(=O)O)c1 [ASA, 5-aminosalicylic acid] | 14.7 | Within an hour post-dose |
| CC(=O)Nc1ccc(O)c(C(=O)O)c1 [N-acetyl-ASA] | 11.4 | Within an hour post-dose |
